Experimental data reported in patent publication US12060360B2, “Lysyl oxidase inhibitors” (The Institute of Cancer Research: Royal Cancer Hospital, priority 2017, dated 2024).

How the values were obtained:
[1] = system: MDA-MB-231 human breast adenocarcinoma; assay: MDA-MB-231 xenografts, primary tumour volume T/C; type: in vivo; settings: 200 mg/kg po qd, ratio of average tumour volume treated/vehicle control, p<0.05
Protocol: (§1) All procedures involving animals were approved by the Animal Welfare and Ethical Review Body of the Institute of Cancer Research and Cancer Research UK Manchester Institute in accordance with National Home Office regulations under the Animals (Scientific Procedures) Act 1986 and according to the guidelines of the Committee of the National Cancer Research Institute Tumour size was determined by caliper measurements of tumour length, width and depth and volume was calculated as volume=0.5236×length×width×depth (mm).
MDA-MB-231 xenografts. Ncr nude female mice at 6 weeks old from Charles River were injected into the third upper nipple mammary fat pad with MDA-MB-231 Luc 4×10^6 in 100 ul PB (50:50 Matrigel). When tumours reach a mean of 80 mm^3 around 10 days post cell inoculation the animals are allocated in 4 groups of 8. LOX inhibitor treatment is then administrated by oral gavage dosing, at 0.2 ml/20 g bodyweight once daily for up to 28 consecutive days. Tumours and weights are measured twice weekly using calipers and the animals can be imaged using non invasive method by bioluminescence using IVIS 200 imaging machine, weekly using 150 mg/kg luciferin administrate intraperitoneal or subcutaneous. At the end of the study the animals are culled, and samples taken, fixed or snap frozen in liquid nitrogen. Frozen samples kept at −80 degree centigrade until being analyzed and the fixed samples stained according to desired marker.
(§2) For therapeutic efficacy assessment, the ratio of average tumour volume between compound treated and vehicle control treated (T/C) is calculated. Reduction in tumour volume in the compound treated group compared to vehicle-treated control group results in T/C<1. The efficacy of LOX inhibitors described in this invention, as measured by T/C in a pancreatic cancer model, a colorectal cancer model and a breast cancer model is shown in Table 2 and is significant (p<0.05) for all the data presented.

LOX = biological target: T1, LOX (Mus musculus, UniProt P28301); assay: LOX activity in cysts assay (LOX-roGFP2 biosensor, MDCK cysts); type: cell-based; settings: MDCK cysts, roGFP2 ratio at basal surface; read-out: LOX biosensor IC50 (cyst)
T1 construct: Full length LOX cDNA was then PCR cloned into pEGFP-N1 (Clonetech), or biosensor vector proGFP2-N1; expressed in transfected cells; host or cells: MDCK cells grown as cysts on Matrigel, G418-selected
T1 sequence (P28301 163-411): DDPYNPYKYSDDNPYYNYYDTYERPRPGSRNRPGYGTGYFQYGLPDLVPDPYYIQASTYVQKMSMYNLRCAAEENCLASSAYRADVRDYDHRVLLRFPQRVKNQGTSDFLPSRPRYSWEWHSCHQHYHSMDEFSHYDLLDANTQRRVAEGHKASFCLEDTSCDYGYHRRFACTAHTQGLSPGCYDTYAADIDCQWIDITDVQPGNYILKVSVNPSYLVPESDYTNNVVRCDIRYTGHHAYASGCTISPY
Procedure, shortened: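 Live MDCK cysts grown 10 days on Matrigel and expressing mouse LOX fused to the roGFP2 redox biosensor, with inhibitors added 30 min before confocal imaging. Oxidised/reduced ratio (405/488 nm excitation, 500–530 nm emission) at the basal cyst surface taken as LOX activity. DMSO defines 0% and 1 mM BAPN 100% inhibition.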

[2] = system: MMTV-PyMT breast transgenic model primary tumour; assay: MMTV-PyMT transgenic mouse breast cancer model, primary tumour T/C; type: in vivo; settings: 200 mg/kg po qd; ratio of average tumour volume treated/vehicle control; p<0.05
Protocol: as §1
MMTV-PyMT (Guy et al, 1992) (FVB) female mice were randomized by non-statistical methods to LOX inhibitor treatment groups from day 70 post-birth, when animals had no detectable tumour. Mice were treated daily by oral gavage with LOX inhibitor in vehicle, or daily vehicle (5% DMSO/2.5% Tween20 in water) by oral gavage. Tumour size was determined unblinded by caliper measurements of tumour length, width and depth and volume was calculated as 0.5236×length×width×depth (mm). In all experiments, mice were humanely killed and mammary tumours and lungs were collected when the primary tumours reached ethical limits or signs of ill health.
as §2

[3] = system: SW620 human colorectal carcinoma cells (mutant RAS); assay: SW620 xenografts, primary tumour volume T/C; type: in vivo; settings: 200 mg/kg po qd; ratio of average tumour volume treated/vehicle control; p<0.05
Protocol: as §1
SW620 xenografts: NCr mice were inoculated subcutaneously in the right flank with 5×10^6 SW620 cells at 100 ul suspension per animal. Groups of 7-8 mice were assigned to treatment following stratified allocation of tumour volumes with a median size of circa 100 mm^3. […] Tumours and weights are measured twice weekly using calipers. […] Frozen samples are kept at −80 degree centigrade until being analysed and the fixed samples stained according to the desired marker.
as §2, with “Reduction in tumour volume in the compound treated group compared to vehicle-treated control group results in T/C<1.” left out

With `CCOc1ccc(N2C[C@H]3CN(CCCC#N)C[C@@H]2C(C)(C)C3)cc1` [Example 42, 4-((1R,5S)-6-(4-ethoxyphenyl)-9,9-dimethyl-3,6-diazabicyclo[3.2.2]nonan-3-yl)butanenitrile] as the compound, how does the response vs control in vivo at 200 mg/kg [1] read?
The response vs control in vivo at 200 mg/kg was 41%.

What about the IC50 (LOX) of the same compound?
Its IC50 is under 630 nM.

And the “T/C MMT-PyMT breast transgenic model - primary tumour” value [2]?
Its value is 0.50.

And the “T/C SW620 human colorectal carcinoma cells (mutant RAS) - primary tumour” value [3]?
Its value is 0.54.
